{
  "source": "patent US9630977B2",
  "about": "“Cephalosporin derivatives and pharmaceutical compositions thereof” (Legochem Biosciences, Inc., priority 2011, dated 2017)",
  "data": [
    {"tested_on": "P. aeruginosa 37", "test": "In vitro antibacterial activity test (broth microdilution)", "assay_type": "cell-based", "details": "P. aeruginosa 37", "procedure": "(§1) To evaluate antibacterial activity of each of the compounds of Examples 1 to 68, in vitro antibacterial activity test was performed.\n(§2) The in vitro antibacterial activity was evaluated by measuring MIC90 (ug/mL) of each of the compounds of Examples 1 to 68, which is defined as the lowest concentration of an antibiotic that will inhibit the visible growth of 90% of microorganisms after incubation as compared with a control group to which the antibiotic is not treated. MIC90 values were measured by the broth microdilution method developed by the Clinical and Laboratory Standards Institute (CLSI) (see CLSI M7-A5, Methods for Dilution Antimicrobial Susceptibility Test for Bacteria that Grow Aerobically-Fifth Edition (2000): CLSI, Villanova, Pa.).\n(§3) In vitro antibacterial activity was measured with respect to the following 19 clinical isolates: M. catarrhalis; P. aeruginosa (5 strains); K. pneumoniae (6 strains); A. baumannii (3 strains); E. coli (2 strains); A. calcoaceticus; and E. cloacae.\n(§4) Test compounds each (the cephalosporin derivative compounds prepared in Examples 1 to 68) were dissolved in DMSO at the concentration of 10,240 ug/mL, were diluted by two fold with DMSO, and then were diluted by twenty fold with sterilized distilled water. The final concentration in the antibacterial activity test was in the range of […] to 128 ug/mL, and the final concentration of DMSO used as an adjuvant was 2.5% (V/V).", "units": {"MIC90": "µg/mL"}, "values": [
      {"smiles": "CC(C)(O/N=C(\\C(=O)N[C@@H]1C(=O)N2C(C(=O)[O-])=C(C[n+]3cnc(N)c(NCCN)c3)CSC12)c1csc(N)n1)C(=O)O", "note": "(some centres unmarked) [Compound 49]", "MIC90": 8}
    ]},
    {"tested_on": "E. coli β4", "test": "In vitro antibacterial activity test (broth microdilution)", "assay_type": "cell-based", "details": "not given", "procedure": "as §1, §2, §3, §4", "units": {"MIC90": "µg/mL"}, "values": [
      {"smiles": "CC(C)(O/N=C(\\C(=O)N[C@@H]1C(=O)N2C(C(=O)[O-])=C(C[n+]3cnc(N)c(NCCN)c3)CSC12)c1csc(N)n1)C(=O)O", "note": "(some centres unmarked) [Compound 49]", "MIC90": 8}
    ]},
    {"tested_on": "E. coli AG100", "test": "In vitro antibacterial activity test (broth microdilution)", "assay_type": "cell-based", "details": "E. coli AG100", "procedure": "as §1, §2, §3, §4", "units": {"MIC90": "µg/mL"}, "values": [
      {"smiles": "CC(C)(O/N=C(\\C(=O)N[C@@H]1C(=O)N2C(C(=O)[O-])=C(C[n+]3cnc(N)c(NCCN)c3)CSC12)c1csc(N)n1)C(=O)O", "note": "(some centres unmarked) [Compound 49]", "MIC90": 4}
    ]},
    {"tested_on": "P. aeruginosa 43", "test": "In vitro antibacterial activity test (broth microdilution)", "assay_type": "cell-based", "details": "Pseudomonas aeruginosa, 43", "procedure": "as §1, §2, §3, §4", "units": {"MIC90": "µg/mL"}, "values": [
      {"smiles": "CC(C)(O/N=C(\\C(=O)N[C@@H]1C(=O)N2C(C(=O)[O-])=C(C[n+]3cnc(N)c(NCCN)c3)CSC12)c1csc(N)n1)C(=O)O", "note": "(some centres unmarked) [Compound 49]", "MIC90": "> 128"}
    ]},
    {"tested_on": "E. cloacae β19", "test": "In vitro antibacterial activity test (broth microdilution)", "assay_type": "cell-based", "details": "not given", "procedure": "as §1, §2, §3, §4", "units": {"MIC90": "µg/mL"}, "values": [
      {"smiles": "CC(C)(O/N=C(\\C(=O)N[C@@H]1C(=O)N2C(C(=O)[O-])=C(C[n+]3cnc(N)c(NCCN)c3)CSC12)c1csc(N)n1)C(=O)O", "note": "(some centres unmarked) [Compound 49]", "MIC90": 32}
    ]},
    {"tested_on": "A. baumannii 46", "test": "In vitro antibacterial activity test (broth microdilution)", "assay_type": "cell-based", "details": "A. baumannii 46", "procedure": "as §1, §2, §3, §4", "units": {"MIC90": "µg/mL"}, "values": [
      {"smiles": "CC(C)(O/N=C(\\C(=O)N[C@@H]1C(=O)N2C(C(=O)[O-])=C(C[n+]3cnc(N)c(NCCN)c3)CSC12)c1csc(N)n1)C(=O)O", "note": "(some centres unmarked) [Compound 49]", "MIC90": 8}
    ]},
    {"tested_on": "P. aeruginosa 6065Y", "test": "In vitro antibacterial activity test (broth microdilution)", "assay_type": "cell-based", "details": "not given", "procedure": "as §1, §2, §3, §4", "units": {"MIC90": "µg/mL"}, "values": [
      {"smiles": "CC(C)(O/N=C(\\C(=O)N[C@@H]1C(=O)N2C(C(=O)[O-])=C(C[n+]3cnc(N)c(NCCN)c3)CSC12)c1csc(N)n1)C(=O)O", "note": "(some centres unmarked) [Compound 49]", "MIC90": 16}
    ]},
    {"tested_on": "K. pneumoniae β14", "test": "In vitro antibacterial activity test (broth microdilution)", "assay_type": "cell-based", "details": "not given", "procedure": "as §1, §2, §3, §4", "units": {"MIC90": "µg/mL"}, "values": [
      {"smiles": "CC(C)(O/N=C(\\C(=O)N[C@@H]1C(=O)N2C(C(=O)[O-])=C(C[n+]3cnc(N)c(NCCN)c3)CSC12)c1csc(N)n1)C(=O)O", "note": "(some centres unmarked) [Compound 49]", "MIC90": 32}
    ]},
    {"tested_on": "P. aeruginosa 1912E", "test": "In vitro antibacterial activity test (broth microdilution)", "assay_type": "cell-based", "details": "not given", "procedure": "as §1, §2, §3, §4", "units": {"MIC90": "µg/mL"}, "values": [
      {"smiles": "CC(C)(O/N=C(\\C(=O)N[C@@H]1C(=O)N2C(C(=O)[O-])=C(C[n+]3cnc(N)c(NCCN)c3)CSC12)c1csc(N)n1)C(=O)O", "note": "(some centres unmarked) [Compound 49]", "MIC90": 2}
    ]},
    {"tested_on": "P. aeruginosa 40", "test": "In vitro antibacterial activity test (broth microdilution)", "assay_type": "cell-based", "details": "P. aeruginosa 40", "procedure": "as §1, §2, §3, §4", "units": {"MIC90": "µg/mL"}, "values": [
      {"smiles": "CC(C)(O/N=C(\\C(=O)N[C@@H]1C(=O)N2C(C(=O)[O-])=C(C[n+]3cnc(N)c(NCCN)c3)CSC12)c1csc(N)n1)C(=O)O", "note": "(some centres unmarked) [Compound 49]", "MIC90": 4}
    ]},
    {"tested_on": "A. calcoaceticus ATCC15473", "test": "In vitro antibacterial activity test (broth microdilution)", "assay_type": "cell-based", "details": "A. calcoaceticus ATCC15473", "procedure": "as §1, §2, §3, §4", "units": {"MIC90": "µg/mL"}, "values": [
      {"smiles": "CC(C)(O/N=C(\\C(=O)N[C@@H]1C(=O)N2C(C(=O)[O-])=C(C[n+]3cnc(N)c(NCCN)c3)CSC12)c1csc(N)n1)C(=O)O", "note": "(some centres unmarked) [Compound 49]", "MIC90": 2}
    ]},
    {"tested_on": "K. pneumoniae 2011E", "test": "In vitro antibacterial activity test (broth microdilution)", "assay_type": "cell-based", "details": "K. pneumoniae 2011E", "procedure": "as §1, §2, §3, §4", "units": {"MIC90": "µg/mL"}, "values": [
      {"smiles": "CC(C)(O/N=C(\\C(=O)N[C@@H]1C(=O)N2C(C(=O)[O-])=C(C[n+]3cnc(N)c(NCCN)c3)CSC12)c1csc(N)n1)C(=O)O", "note": "(some centres unmarked) [Compound 49]", "MIC90": 8}
    ]},
    {"tested_on": "A. baumannii 49", "test": "In vitro antibacterial activity test (broth microdilution)", "assay_type": "cell-based", "details": "A. baumannii 49", "procedure": "as §1, §2, §3, §4", "units": {"MIC90": "µg/mL"}, "values": [
      {"smiles": "CC(C)(O/N=C(\\C(=O)N[C@@H]1C(=O)N2C(C(=O)[O-])=C(C[n+]3cnc(N)c(NCCN)c3)CSC12)c1csc(N)n1)C(=O)O", "note": "(some centres unmarked) [Compound 49]", "MIC90": 64}
    ]},
    {"tested_on": "A. baumannii 52", "test": "In vitro antibacterial activity test (broth microdilution)", "assay_type": "cell-based", "details": "A. baumannii 52", "procedure": "as §1, §2, §3, §4", "units": {"MIC90": "µg/mL"}, "values": [
      {"smiles": "CC(C)(O/N=C(\\C(=O)N[C@@H]1C(=O)N2C(C(=O)[O-])=C(C[n+]3cnc(N)c(NCCN)c3)CSC12)c1csc(N)n1)C(=O)O", "note": "(some centres unmarked) [Compound 49]", "MIC90": 64}
    ]}
  ]
}
